The values that follow come from US11713338B2, “Cyclic peptides multimers targeting α-4-β-7 integrin” (priority 2016, dated 2023).

SMILES strings stand for the structures.

What all share (type): cell-based
The target in test [1] is T1, integrin α4β7 (RPMI8866 human cells adhering to MAdCAM-1) (Homo sapiens, UniProt P13612+P26010).
T1 construct: RMP18866 cells, which express integrin α4β7; host or cells: RPMI8866
T1 sequence (P13612 34-1032): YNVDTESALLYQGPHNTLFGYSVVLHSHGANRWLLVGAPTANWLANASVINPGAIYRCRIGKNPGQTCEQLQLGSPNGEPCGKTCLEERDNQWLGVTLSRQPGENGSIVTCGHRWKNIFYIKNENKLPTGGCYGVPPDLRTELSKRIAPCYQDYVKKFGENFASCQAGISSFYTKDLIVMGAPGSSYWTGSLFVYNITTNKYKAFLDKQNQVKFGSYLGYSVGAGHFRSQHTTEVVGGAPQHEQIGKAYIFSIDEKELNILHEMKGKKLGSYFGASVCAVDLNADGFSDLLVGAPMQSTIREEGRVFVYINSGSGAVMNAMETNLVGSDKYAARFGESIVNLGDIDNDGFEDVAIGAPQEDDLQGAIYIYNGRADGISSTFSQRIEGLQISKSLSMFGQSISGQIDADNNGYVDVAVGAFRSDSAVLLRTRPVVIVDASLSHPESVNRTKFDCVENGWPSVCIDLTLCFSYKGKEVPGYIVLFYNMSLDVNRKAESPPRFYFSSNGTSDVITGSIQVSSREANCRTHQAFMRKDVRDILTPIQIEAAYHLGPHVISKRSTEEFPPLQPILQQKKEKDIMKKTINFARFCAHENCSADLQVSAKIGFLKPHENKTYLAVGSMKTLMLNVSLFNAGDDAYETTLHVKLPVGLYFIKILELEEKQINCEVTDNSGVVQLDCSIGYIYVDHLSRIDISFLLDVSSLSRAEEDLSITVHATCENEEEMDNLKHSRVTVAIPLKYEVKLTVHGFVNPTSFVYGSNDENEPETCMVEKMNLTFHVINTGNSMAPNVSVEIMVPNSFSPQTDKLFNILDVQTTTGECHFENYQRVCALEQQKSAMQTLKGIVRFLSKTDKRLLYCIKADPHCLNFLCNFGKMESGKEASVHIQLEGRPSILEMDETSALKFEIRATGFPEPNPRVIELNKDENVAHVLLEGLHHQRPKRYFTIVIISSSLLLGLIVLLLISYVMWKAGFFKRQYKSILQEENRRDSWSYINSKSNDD
T1 sequence (P26010 20-798): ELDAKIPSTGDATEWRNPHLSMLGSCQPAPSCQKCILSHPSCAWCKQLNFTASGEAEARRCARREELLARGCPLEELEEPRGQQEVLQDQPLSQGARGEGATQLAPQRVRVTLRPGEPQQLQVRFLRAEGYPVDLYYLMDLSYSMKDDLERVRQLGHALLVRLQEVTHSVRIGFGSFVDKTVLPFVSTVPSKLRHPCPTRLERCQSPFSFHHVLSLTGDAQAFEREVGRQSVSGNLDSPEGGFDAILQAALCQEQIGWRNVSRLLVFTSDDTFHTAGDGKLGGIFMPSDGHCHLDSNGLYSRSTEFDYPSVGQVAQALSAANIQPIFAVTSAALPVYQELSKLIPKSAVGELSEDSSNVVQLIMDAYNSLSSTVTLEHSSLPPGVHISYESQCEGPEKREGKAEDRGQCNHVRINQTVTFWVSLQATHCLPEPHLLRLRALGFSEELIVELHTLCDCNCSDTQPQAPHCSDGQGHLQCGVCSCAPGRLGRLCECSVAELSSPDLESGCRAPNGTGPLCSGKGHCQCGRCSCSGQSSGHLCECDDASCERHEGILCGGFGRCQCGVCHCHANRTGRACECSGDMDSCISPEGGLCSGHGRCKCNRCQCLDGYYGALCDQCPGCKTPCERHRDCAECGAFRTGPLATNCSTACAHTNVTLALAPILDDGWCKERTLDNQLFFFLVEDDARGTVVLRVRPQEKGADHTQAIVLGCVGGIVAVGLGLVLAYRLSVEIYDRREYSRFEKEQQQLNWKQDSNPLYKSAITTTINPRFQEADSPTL
The test is described as follows: Integrin α4β7-MAdCAM cell adhesion assay (RPMI8866 cells). Conditions: RPMI8866 cells adhering to MAdCAM; read-out: RPMI8866 Adhesion α4β7/MAdCAM IC50. Here is the method:
Integrin α4β7-MAdCAM Cell Adhesion Assay
(§1) RPMI8866 cells were resuspended at 10 million cells/ml in PBS containing […] and incubated at 37° C. for 30 min in a 50 ml tube. […] The plate was emptied by inverting and blotting on paper towels and washed manually twice with PBS. 100 μl PBS was then added to each well. […] To calculate the dose response, the fluorescence value of control wells not containing cells was subtracted from each test well.

The target in test [2] is T2, integrin α4β7 on α4β7+ memory T helper cells (Homo sapiens, UniProt P13612+P26010).
T2 construct: endogenous in cells
T2 sequence (P13612 34-1032): T1 sequence (P13612 34-1032)
T2 sequence (P26010 20-798): T1 sequence (P26010 20-798)
The test is described as follows: MAdCAM-1 competition / receptor occupancy assay in human whole blood, α4β7-positive Th memory cells. Conditions: human whole blood; for IC50: inhibition of MAdCAM-1 binding to α4β7-positive Th memory cells, FACS, read-out: MADCAM FACS α4β7 Th mem. Here is the method: Analyte Competition Assay in CD4+ Integrin α4+β7-Lo Memory T Cells
Receptor occupancy in primary cells was determined by measuring the amount of biotinylated human recombinant MAdCAM-1-FC or human recombinant VCAM-1-Fc bound to selected cell populations using flow cytometry. Human recombinant MAdCAM-1-FC or human recombinant VCAM-1-FC (R&D systems) were biotinylated using commercially available reagents and protocol (Pierce).
Whole blood was collected from human donors in sodium heparin tubes. […] Cells were washed twice with 1 mL of 1X DPBS calcium magnesium free (CMF) (ThermoFisher Scientific) and resuspended in 100 microL of DPBS CMF.
Biotinylated human recombinant MAdCAM-1-Fc or VCAM-1-Fc were added at saturating concentration and incubated at room temperature for 1 hour. […] Cells were washed with 1 mL stain buffer-FBS (BD Biosciences) and resuspended in 100 μl stain Buffer-FBS (BD Biosciences) containing 4 mM MnCl2. […] Cells were then washed with 1 mL stain buffer-FBS and resuspended in […] stain buffer-FBS. The cells were incubated in the dark for 30 minutes at room temperature with 1 ul Streptavidin APC (Biolegend 0.2 mg/ml) and a panel of antibodies for the detection of memory T helper a4b7-positive cells subset. And amount of 5.0 ul each of the following antibodies were used; CD45 FITC (BioLegend 200 ug/ml), CD29 APC Cy7 (BioLegend 100 ug/ml), Integrin beta7 PE, (BioLegend concentration 50 μg/mL), CD49d V421 (BioLegend 50 μg/mL), CD3 V510 (BioLegend 30 μg/mL), CD4 PECy7 (BioLegend 100 μg/mL), CD45RO PerCP, BioLegend 200 μg/mL). The cells were then washed with stain-buffer-FBS and resuspended in 150 microL stain buffer-FBS for acquisition on the flow cytometer (BD FACSCanto™ flow cytometer and BDFACSDiva™ software). FACS data was acquire by electronic gating on the basis of forward versus side scatter, The cytometer was set to collect 20,000 events in each tube. Cell population were determined using the following markers, CD45+, CD3+, CD4+, CD45RO+, CD49d+, integrin b7, biotinylated ligands.
Compound receptor occupancy was defined as the decrease in the number of integrin β7+ or integrin β7-lo cells binding biotinylated rhMAdCAM-1 or rhVCAM-1, respectively.
Receptor occupancy was calculated with the following equation: 100−((% ligand-positive cells with compound/% ligand-positive cells DMSO)*100) In Vivo T Lymphocyte Trafficking Analysis in Mouse Model of Colitis

The target in test [3] is T3, integrin α4β1 (RAMOS human cells adhering to VCAM-1) (Homo sapiens, UniProt P05556+P13612).
T3 construct: Ramos cells, which express integrin α4β1; host or cells: RAMOS
T3 sequence (P05556 21-798, one chain of several): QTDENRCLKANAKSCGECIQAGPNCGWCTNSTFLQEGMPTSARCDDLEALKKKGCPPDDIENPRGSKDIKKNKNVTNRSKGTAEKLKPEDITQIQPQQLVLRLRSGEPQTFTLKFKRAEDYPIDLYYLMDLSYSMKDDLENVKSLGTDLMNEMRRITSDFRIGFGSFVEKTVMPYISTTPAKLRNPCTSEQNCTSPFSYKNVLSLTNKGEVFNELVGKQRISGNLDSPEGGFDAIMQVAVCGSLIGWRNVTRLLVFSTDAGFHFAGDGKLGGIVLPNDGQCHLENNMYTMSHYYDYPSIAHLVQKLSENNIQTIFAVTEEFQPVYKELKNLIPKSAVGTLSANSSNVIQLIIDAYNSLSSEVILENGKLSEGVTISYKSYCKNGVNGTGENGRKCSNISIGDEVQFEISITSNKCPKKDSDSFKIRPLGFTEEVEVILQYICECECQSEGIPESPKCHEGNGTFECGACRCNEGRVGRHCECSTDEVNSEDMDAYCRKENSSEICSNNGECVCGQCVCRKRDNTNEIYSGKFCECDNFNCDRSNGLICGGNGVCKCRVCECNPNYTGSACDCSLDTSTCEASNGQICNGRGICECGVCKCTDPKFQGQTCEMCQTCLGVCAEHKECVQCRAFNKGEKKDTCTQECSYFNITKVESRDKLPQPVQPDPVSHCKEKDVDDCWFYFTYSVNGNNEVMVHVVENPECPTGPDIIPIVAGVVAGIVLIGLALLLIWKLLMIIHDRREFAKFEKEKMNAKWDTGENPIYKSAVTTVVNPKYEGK
The test is described as follows: Integrin α4β1-VCAM cell adhesion assay (RAMOS cells). Conditions: for IC50: Ramos cells adhering to VCAM, read-out: Ramos Adhesion α4β1/VCAM IC50. Here is the method:
Integrin α4β1-VCAM Cell Adhesion Assay
as §1, with “The plate was incubated overnight at 4° C. and washed twice with 150 μl per well wash buffer (0.05% Tween 20 in PBS), blocked with 250 μl per well blocking buffer (1% non-fat dry milk in PBS), for 1 hour at room temperature. During blocking step, RAMOS” for “RPMI8866”, “PBS.” for “PBS. 100 μl PBS was then added to each well.”

On to `CC(C)C[C@@H]1NC(=O)c2ccc(-c3ccc(N4CCN(C(=O)c5ccc6cc(C(=O)N7CCN(c8ccc(-c9ccc%10cc9CNC(=O)[C@@H]9CCCN9[C@H](C(=O)NC(C)(C)C)[C@H](C)NC(=O)[C@H]([C@@H](C)O)NC(=O)[C@H](CC(=O)O)NC(=O)[C@H](CC(C)C)NC%10=O)cc8)CC7)ccc6c5)CC4)cc3)c(c2)CNC(=O)[C@@H]2CCCN2[C@H](C(=O)NC(C)(C)C)[C@H](C)NC(=O)[C@H]([C@@H](C)O)NC(=O)[C@H](CC(=O)O)NC1=O` [Compound 471], for which the IC50 in test [1] came to 29 nM; in test [2], 46 nM. As to `CC(C)C[C@@H]1NC(=O)c2ccc(-c3ccc(N4CCN(C(=O)CCOCCOCCNC(=O)COCC(=O)NCCOCCOCCC(=O)N5CCN(c6ccc(-c7ccc8cc7CNC(=O)[C@@H]7CCCN7[C@H](C(=O)NC(C)(C)C)[C@H](C)NC(=O)[C@H]([C@@H](C)O)NC(=O)[C@H](CC(=O)O)NC(=O)[C@H](CC(C)C)NC8=O)cc6)CC5)CC4)cc3)c(c2)CNC(=O)[C@@H]2CCCN2[C@H](C(=O)NC(C)(C)C)[C@H](C)NC(=O)[C@H]([C@@H](C)O)NC(=O)[C@H](CC(=O)O)NC1=O` [Compound 506], the IC50 in test [3] worked out at 11000 nM. For the molecule `CC(C)C[C@@H]1NC(=O)c2ccc(-c3ccc(N4CCN(C(=O)c5cc(C(=O)N6CCN(c7ccc(-c8ccc9cc8CNC(=O)[C@@H]8CCCN8[C@H](C(=O)NC(C)(C)C)[C@H](C)NC(=O)[C@H]([C@@H](C)O)NC(=O)[C@H](CC(=O)O)NC(=O)[C@H](CC(C)C)NC9=O)cc7)CC6)cc(C(F)(F)F)c5)CC4)cc3)c(c2)CNC(=O)[C@@H]2CCCN2[C@H](C(=O)NC(C)(C)C)[C@H](C)NC(=O)[C@H]([C@@H](C)O)NC(=O)[C@H](CC(=O)O)NC1=O` [Compound 477], the results for the IC50 in test [1] and in test [2] were 21 nM and 124 nM, respectively.

Consider `CC(C)C[C@@H]1NC(=O)c2ccc(-c3ccc(N4CCNCC4)cc3)c(c2)CNC(=O)[C@@H]2CCCN2[C@H](C(=O)NC(C)(C)C)[C@H](C)NC(=O)[C@H]([C@@H](C)O)NC(=O)[C@H](CC(=O)O)NC1=O` [Compound 340], for which the “receptor occupancy at low concentrations” value in test [2] (low concentrations) is reported as 50%. With `CC(C)C[C@@H]1NC(=O)c2ccc(-c3ccc(N4CCN(C(=O)c5ccnc(-c6cc(C(=O)N7CCN(c8ccc(-c9ccc%10cc9CNC(=O)[C@@H]9CCCN9[C@H](C(=O)NC(C)(C)C)[C@H](C)NC(=O)[C@H]([C@@H](C)O)NC(=O)[C@H](CC(=O)O)NC(=O)[C@H](CC(C)C)NC%10=O)cc8)CC7)ccn6)c5)CC4)cc3)c(c2)CNC(=O)[C@@H]2CCCN2[C@H](C(=O)NC(C)(C)C)[C@H](C)NC(=O)[C@H]([C@@H](C)O)NC(=O)[C@H](CC(=O)O)NC1=O` [Compound 465], the IC50 in test [2] was 132 nM. Regarding `CC(C)C[C@@H]1NC(=O)c2ccc(-c3ccc(N4CCN(C(=O)c5cc6ccccc6c(Cc6c(O)c(C(=O)N7CCN(c8ccc(-c9ccc%10cc9CNC(=O)[C@@H]9CCCN9[C@H](C(=O)NC(C)(C)C)[C@H](C)NC(=O)[C@H]([C@@H](C)O)NC(=O)[C@H](CC(=O)O)NC(=O)[C@H](CC(C)C)NC%10=O)cc8)CC7)cc7ccccc67)c5O)CC4)cc3)c(c2)CNC(=O)[C@@H]2CCCN2[C@H](C(=O)NC(C)(C)C)[C@H](C)NC(=O)[C@H]([C@@H](C)O)NC(=O)[C@H](CC(=O)O)NC1=O` [Compound 502], the IC50 in test [1] amounted to 102 nM; in test [3], 779 nM. Moreover, the “Ratio Ramos/RPMI” value in test [3] (ratio of cell adhesion IC50s, Ramos α4β1/VCAM over RPMI8866 α4β7/MAdCAM) is 8.

With `CC(C)C[C@@H]1NC(=O)c2ccc(-c3ccc(N4CCN(C(=O)CCOCCOCCOCCOCCOCCOCCOCCOCCOCCOCCOCCOCCOCCC(=O)N5CCN(c6ccc(-c7ccc8cc7CNC(=O)[C@@H]7CCCN7[C@H](C(=O)NC(C)(C)C)[C@H](C)NC(=O)[C@H]([C@@H](C)O)NC(=O)[C@H](CC(=O)O)NC(=O)[C@H](CC(C)C)NC8=O)cc6)CC5)CC4)cc3)c(c2)CNC(=O)[C@@H]2CCCN2[C@H](C(=O)NC(C)(C)C)[C@H](C)NC(=O)[C@H]([C@@H](C)O)NC(=O)[C@H](CC(=O)O)NC1=O` [Compound 504], in test [1], the IC50 was found to be 42 nM.
